From US20220401411A1, “ZAFIRLUKAST DERIVATIVES FOR USE AS CONTRACEPTIVE AGENTS” (Rigshospitalet, priority 2019, published 2022)

Target: T1, human CatSper (Homo sapiens, UniProt Q7RTX7+Q86XQ3+Q8NEC5+Q96P56)
T1 construct: isolated motile sperm cells from freshly ejaculated semen samples of healthy human donors; endogenous in cells; host or cells: motile human sperm cells from ejaculates of healthy donors (swim-up)
Experiment: Inhibition of CatSper activation in human sperm cells, Ca2+-fluorophore plate reader assay
Assay type: cell-based
Settings: for Inhibition of activation of human CatSper by progesterone / Inhibition of activation of human CatSper by intracellular alkalization via NH4Cl: low μM doses, human sperm cells, [Ca2+]i fluorescence; for Inhibition of activation of human CatSper by progesterone: 500 nM progesterone; for Inhibition of activation of human CatSper by intracellular alkalization via NH4Cl: 3 mM NH4Cl; for IC50: motile human sperm cells (swim-up), Ca2+-fluorophore, CatSper activated by 500 nM progesterone, dose inhibition curve, read-out: IC50, inhibition of progesterone-induced signals through CatSper
From the text: (§1) Isolated live and motile human sperm cells were loaded with a Ca^2+-sensitive fluorophore, washed and aliquoted to a 384-well plate placed in a fluorescence plate reader. Readouts in ΔF/F0 (%) on the y-axis reflect the intracellular concentration of Ca^2+ ([Ca^2+],) in the sperm cells as a function of time (FIG. 1, 2, 4) or dose of zafirlukast (FIG. 3).
After measuring the baseline fluorescence for 80s serially diluted doses of zafirlukast as well as a negative buffer control (FIGS. 1 and 4) were added to the sperm cells. Hereafter the measurement was continued for a few minutes before a second addition of 500 nM progesterone (FIG. 1) or 3 mM NH4Cl (FIG. 4) to activate CatSper. […] CatSper-signals induced by 500 nM progesterone (FIG. 2) in the presence of serially diluted doses of zafirlukast are used for the dose inhibition curve for zafirlukast on progesterone-induced signals through CatSper (FIG. 3).
as §1, with “5, 6, 8)” for “1, 2, 4)”, “aniline derivate” for “zafirlukast”, “7).” for “3).”
After measuring the baseline fluorescence for 80s serially diluted doses of aniline derivative as well as a negative buffer control (FIGS. 5 and 8) were added to the sperm cells. Hereafter the measurement was continued for a few minutes before a second addition of 500 nM progesterone (FIG. 5) or 3 mM NH4Cl (FIG. 8) to activate CatSper. […] CatSper-signals induced by 500 nM progesterone (FIG. 6) in the presence of serially diluted doses of the aniline derivative are used for the dose inhibition curve for aniline derivative on progesterone-induced signals through CatSper (FIG. 7).
(§2) To assess the effect of zafirlukast on CatSper in human sperm cells, we first isolated motile sperm cells from freshly ejaculated semen samples of healthy human donors through the swim-up method. Then we loaded these sperm cells with a Ca^2+-fluorophore, i.e. a molecule that emits light more intensively when [Ca^2+], increases. Hereafter we aliquoted these fluorophore-loaded sperm cells to the wells of micro-well plates and inserted the plate into a fluorescence plate reader, that measures the light emitted from the Ca^2+-fluorophore. After measuring the baseline fluorescence for 80s we added to the wells serially diluted doses of zafirlukast (FIGS. 1 and 4). Hereafter we continued the measurement for a few minutes before a second addition of 500 nM progesterone (FIG. 1) or 3 mM NH4Cl (FIG. 4) to activate CatSper.
as §2, with “the aniline derivative” for “zafirlukast”, “[Ca^2*],” for “[Ca^2+],”, “5” for “1”, “8).” for “4).”, “5)” for “1)”, “8)” for “4)”

| Inhibition of activation of human CatSper by progesterone | Inhibition of activation of human CatSper by intracellular alkalization via NH4Cl | IC50 [nM] | SMILES |
| --- | --- | --- | --- |
| inhibits the activation of human CatSper | inhibits the activation of human CatSper | ~900 | COc1cc(C(=O)NS(=O)(=O)c2ccccc2C)ccc1Cc1cn(C)c2ccc(N)cc12 [aniline derivative] |
| inhibits the activation of human CatSper | inhibits the activation of human CatSper | ~2200 | COc1cc(C(=O)NS(=O)(=O)c2ccccc2C)ccc1Cc1cn(C)c2ccc(NC(=O)OC3CCCC3)cc12 [zafirlukast] |
